“And” between values parts separate entries of the source, which are not always exact repeats. Identical values can stand only once.
What was measured:
[1] = In vivo drug release from / drug remaining on implanted stents (HPLC); set-up: species or system porcine; conditions: 14 mm stents, day 7, n = 3
Method: The percentage and/or amount of each anticoagulant drug for or by each time point indicated were analyzed for each stent from the different devices in the example and the average drug tissue concentration reported.
Tissue concentrations and the amount of drug released from the stents were measured using stents implanted in porcine arteries for the drugs as indicated. The arteries at the designated time point were excised and a length of stented artery spanning from 5 mm proximal to the stented segment to 5 mm distal to the stented segment was cut. The stented artery was cut longitudinally with surgical scissors. The stents were separated from the tissue. The tissue content of each drug was analyzed using liquid chromatography mass spectroscopy (LCMS) and reported as a mean for each of the timepoint indicated. For drug remaining on each stent, each drug was extracted from the stent, measured using HPLC, and reported as a mean for each of the timepoint indicated as drug released or drug remaining on a stent (where drug remaining is equal to 100% minus the percentage of drug released).

[2] = test system: blood clotting (citrated sheep blood); assay: Activated clotting time (ACT) in citrated sheep blood (Example 2); conditions: single drug, 0.6 ng/mg
Method: The activated clotting time (ACT) evaluation of anticoagulants was performed in calcium citrate sheep blood and recorded employing the Hemochron® Response device.
The ACT measurements were made in citrated sheep blood. 1.9 ml of citrated sheep blood was added to a test tube containing an activator (Hemochron@Celite@ ACT tubes, Lot F8FTE026 from Accriva Diagnostics, Inc.). A target amount of drug solution was then added into the test tube. The test tube was gently swirled so that the blood and drug was well-mixed. 0.1 ml of 0.3M calcium chloride was then added. The tube was gently shaken before being inserted into the Hemochron Response detector. The ACT read out was recorded and reported. The ACT of the control blood in the absence of any drug as first determined to establish a baseline. Then ACT was determined in the presence of different concentrations of the drug as a single component. Selected drug combinations were then tested to evaluate for potential synergy in action between the two drugs.

[3] = test system: Human Aortic SMC (HAoSMC); assay: HAoSMC cell proliferation assay (CellTiter Aqueous, 72 hours); assay type: cell-based
Method: Cell proliferation assay was done in 96-well format. Low passage cells were trypsinized and seeded in 96 well plates at a density of ~4000 cells/well. The cells are allowed to attach overnight in a CO2 incubator. Next day, the medium was removed and replaced with fresh complete medium containing various concentrations of the test compounds. The final concentration of vehicle (DMSO) in the test medium was 0.1%. After adding test compounds, the cells were incubated for 72 hours. Following this period, the medium was removed and then added fresh medium (100 μl) containing CellTiter Aqueous (1× concentration final) to the wells and incubated for 2 hours in the CO2 incubator. At the end of incubation measured […] with a plate-reader. Controlled incubations with untreated cells and blank incubations containing only medium were included and tested similarly. Based on the cell viability assay the percentage inhibition of the cell proliferation was determined at the different concentrations of the drug tested.
Following the cell proliferation assay as indicated earlier, the percent cell proliferation inhibition was determined, and the assay results plotted to determine the IC50.

[4] = test system: blood clotting (citrated sheep blood); assay: Net activated clotting time (net ACT) in citrated sheep blood (Examples 3-5); set-up: key: seconds; measured ACT minus blood control ACT (165 s); conditions: single drug, blood control 165 seconds
Method: The activated clotting time (ACT) evaluation of anticoagulants was performed in calcium citrate sheep blood and recorded employing the Hemochron® Response device. The ACT measurements were made in citrated sheep blood. 1.9 ml of citrated sheep blood was added to a test tube containing an activator (Hemochron@Celite@ ACT tubes, Lot F8FTE026 from Accriva Diagnostics, Inc.). A target amount of drug solution was then added into the test tube. The test tube was gently swirled so that the blood and drug were well-mixed. 0.1 ml of 0.3M calcium chloride was then added. The tube was gently shaken before being inserted into the Hemochron Response detector. The ACT read out was recorded and reported. The ACT of the control blood in the absence of any drug as first determined to establish a baseline. Here the blood control measured is 165 seconds. Then ACT was determined in the presence of different concentrations of the drug as a single component. In the following study, the net ACT (measured ACT minus blood control ACT) was utilized to visualize the synergistic effect of direct factor Xa inhibitor (Rivaroxaban) and direct factor IIa inhibitor (Argatroban) drug combinations. The figures are presented in ng/mg wherein the density of blood and tissue are approximately the same.
Example 4 is the continuation of example 3, which employed the same method as in example 3. The only difference is that the direct factor Xa inhibitor Edoxaban is used in place of direct factor Xa inhibitor Rivaroxaban.
Example 5 is the continuation of example 3, which employed the same method as in example 3. The only difference is that the direct factor Xa inhibitor Betrixaban is used in place of direct factor Xa inhibitor Rivaroxaban.

porcine coronary artery = assay: In vivo porcine coronary stent implantation: fibrin score and late lumen loss (Examples 25-26); conditions: Table 9, day 7
Method: The drug eluting stent systems containing different anticoagulants prepared as described in Example 11 were evaluated at 3 hours, 6 hours, 1 day, 3 days, 6 days, 7 days, or 28 days following implantation in a porcine coronary artery model.
The porcine model was chosen as this model has been used extensively for stent and angioplasty studies resulting in a large volume of data on the vascular response properties and its correlation to human vascular response (Schwartz et al, Circulation. 2002; 106:1867 1873). The animals were housed and cared for in accordance with the Guide for the Care and Use of Laboratory Animals as established by the National Research Council.
After induction of anesthesia, the left or right femoral artery was accessed using standard techniques and an arterial sheath was introduced and advanced into the artery. Vessel angiography was performed under fluoroscopic guidance, a 7 Fr. guide catheter was inserted through the sheath and advanced to the appropriate location where intracoronary nitroglycerin was administered. An appropriate implantation segment of coronary artery was randomly selected and a 0.014″ guidewire inserted. Quantitative Coronary Angiography (QCA) was performed to document the results. The appropriately size stent was advanced to the deployment site. The balloon was inflated at a steady rate to a pressure sufficient to achieve a balloon to artery ratio of approximately 1.1 to 1.0.
Follow up angiography was performed at the designated timepoint for each of the animals. Late lumen loss (LLL) can be expressed as: […]
The LLL is an indicator of the amount smooth muscle cell (SMC) proliferation or inhibition. It is used to measure efficacy between drugs for SMC proliferation inhibition. The smaller the LLL, the better the efficacy of the drug.
Stented portions of coronary arteries were embedded in methyl methacrylate (MMA), then divided into a target of at least three blocks of approximately similar lengths for histology evaluation. Quantitative histopathological evaluation of stented artery sections was then performed and scored as indicated. For Fibrin formation, scores ranged from 0 to 3, with a score of 0 indicating absent or rare minimal spotting around struts of the stent, a score of 1 indicating the presence of fibrin in small amounts localized only around the struts, a score of 2 indicating the moderately abundant or denser presence of fibrin around and extending beyond the struts, and a score of 3 indicating the presence of abundant and dense fibrin and/or bridging of the fibrin between the struts. The mean score was calculated and reported. The mean of each section was then averaged to provide a mean fibrin score per stent. The smaller the fibrin score, the better efficacy.

Factor IIa = conditions: cited from earlier work
[5] = test system: platelets (Tissue factor generated antiplatelet); conditions: cited from earlier work
[6] = test system: blood clotting (heparinized sheep blood); assay: Net ACT initiated by platelet activation factor (PAF) and CaCl2 in heparinized sheep blood (Examples 6-11); conditions: single drug, 0.05 ng/mg; PAF & CaCl2; blood control 235 seconds
Method: In order to examine the potential synergistic effects between anti-inflammatory agents, direct factor Xa inhibitors, direct factor IIa inhibitors, antiplatelets (P2Y12 inhibitor and glycoprotein IIb/IIIa inhibitor, platelet activation factor and CaCl2 were utilized by measuring ACT. Heparinized sheep blood was used to preserve platelet function.
The activated clotting time (ACT) evaluation initiated by platelet activation factor (PAF) and calcium chloride (CaCl2) was performed in heparinized sheep blood and recorded employing the Hemochron® Response device. […] A target amount of drug solution was then added into the test tube. The test tube was gently swirled so that the blood and drug were well-mixed. […] The tube was gently shaken before being inserted into the Hemochron Response detector. The ACT read out was recorded and reported. The ACT of the control heparinized sheep blood in the absence of any drug as first measured to establish a baseline. […] Then ACT was measured in the presence of different concentrations of the drug measured. Selected drug combinations were then tested to evaluate for potential synergy in action between the drug combination. The net ACT (ACT minus blood control ACT) was utilized to visualize the synergistic effect. […] The figures are presented in ng/mg wherein the density of blood and tissue are approximately the same.

CC1CNc2c(cccc2S(=O)(=O)N[C@@H](CCCNC(=N)N)C(=O)N2CC[C@@H](C)C[C@@H]2C(=O)O)C1 (stereo partly drawn) [Argatroban]
Cumulative Percent Release of drug by day 7: Argatroban [1]: at least 96.9% | ACT [2]: 301 | HAoSMC proliferation inhibition [3]: small to no inhibition | net ACT ([4]; 0.15 ng/mg): 42 and 46 | net ACT ([4]; 0.3 ng/mg): 54 | LLL / smooth muscle cell proliferation compared to bare metal control stents (porcine coronary artery): larger LLLs compared to control | inhibition of fibrin formation compared to bare metal control stents (porcine coronary artery): not effective at inhibiting fibrin formation | IC50 for Anti-Factor IIa (Factor IIa): 0.0107 ng/mg | IC50 (Factor IIa; read-out: IC50 for Anti-Factor IIa): 21 nM | IC50 [5]: 79 nM | IC50 for Tissue factor generated antiplatelet [5]: 0.04 ng/mg | net ACT [6]: 56 s

— patent US20260315653A1, “ANTICOAGULANT COMPOSITIONS COMPRISING ANTI-PLATELET AND ANTI-INFLAMMATORY DRUGS AND METHODS AND DEVICES FOR THEIR USE” (Elixir Medical Corporation, priority 2023, published 2026)
